Measurements reported in a melting point compilation (Tetko et al.; mined from patent text by program, amines drawn as free bases though some values may be those of a salt).

Structure (SMILES)	melting point [°C]
O=C1CCC(O)(c2ccc(Cl)cc2)CC1	138 to 139
CCCc1c(OCCCCCCc2cccc(O)c2O)ccc(C(=O)O)c1O	147 to 150
CNC(=S)Nc1ccc(C)cn1	161
O=C(O)C=CC(=O)Nc1ccc2ncnc(Nc3cccc(Br)c3)c2c1	224 to 225
Nc1ccc(-n2cnc(-c3ccc(C(F)(F)F)cc3)n2)cc1Cl	148
O=C(O)c1cc(Br)sc1Cl	159 to 160
CN(C)Cc1ccc(CSCCN=CNC#N)o1	74 to 76
CCCc1c(OCC#CCSCCO)ccc(C(C)=O)c1O	52 to 53
COc1ccc(C=Cc2cc(F)c(OC)c(OC)c2)cc1O	86 to 87
FC(F)(F)Oc1ccc2c(c1)nc(/C=C/c1ccccc1)n2-c1ccccn1	92 to 93
CCc1nn(CC(N)=O)c(CC)c1Oc1cc(Cl)cc(Cl)c1	164 to 166
FC(F)(F)c1ccc(-c2ncc(Br)cn2)cc1	167
CS(=O)(=O)N1CCCn2c(nc3c(N)nc4c(c32)CCCC4)C1	270 to 272
Cc1c(NC(=O)CCCC(=O)c2ccc(F)cc2)ccc2cc(CN3CCCC3)cnc12	170 to 171
CCOC(CCc1c(N(C(C)=O)C(C)=O)nc(NC(C)=O)[nH]c1=O)OCC	126 to 137
CNC(=NCCSCc1[nH]cnc1C)NS(C)(=O)=O	133 to 134
C#CCOC(=O)c1cc(Cl)c(OCC#C)c(OCC#C)c1	98 to 99
CC12CC(=O)C3C(CCC4CC(O)CCC43C)C1CCC2C(=O)CCN1C(=O)c2ccccc2C1=O (stereo not given)	187 to 189
Cc1ccc2c(c1)C1CN(CCO)CCC1N2 (stereo not given)	182 to 185
COc1cc(O)c(CN(CCc2ccc([N+](=O)[O-])cc2)C(=O)OC(C)(C)C)c(OC)c1	134
CCCCCCCCNC(=O)/C=C\SC(=O)CC	68 to 70

Structure (SMILES)	melting point [°C]
COc1cc2c(-c3ccnc(NN)c3)c(CO)c(CO)cc2cc1OC(C)C	128 to 131
CCCC/C(=C\C=C\C(=O)O)c1cccc(OC)c1	77.5 to 78.5
Cc1cc(-c2ccc(F)cc2)ccc1C(=O)Nc1ccc2cc(CN3CCCC3)cnc2c1C	200 to 203
CCNCCc1c[nH]c2ccc(Cn3cncn3)cc12	106 to 107
C=CCNc1c(C(=O)OCC)cnc2cn(C(C)(C)OC)nc12	102 to 103
CC(C)(C)OC(=O)N[C@@H](Cc1cc(F)cc(F)c1)[C@H]1CO1	99
CCCCCCCCCCNS(=O)(=O)c1ccc(OC)cc1	53 to 54.5
C=CCSc1nc(-c2ccc(OC)cc2)c(-c2ccc(OC)cc2)s1	57 to 58
CC(C)[C@H](NC(=O)N(C)Cc1ccccn1)C(=O)N[C@@H](Cc1ccccc1)[C@@H](O)C[C@H](Cc1ccccc1)NC(=O)OCc1cccnc1	69 to 71
O=C(Nc1cccc(Oc2ccc(Cl)cc2)c1)c1ccn2c1CSC2c1cccnc1 (stereo not given)	140
CC1(C)CC(O)CC(C)(C)N1CC(O)CO (stereo not given)	97 to 99
CCc1nc2c(cnn2CC)c(NC2CCOCC2)c1CNC(=O)c1cc(C)cc(C(=O)NCc2ccc(Cl)c(Br)c2)c1	212 to 214
CN(C)CC(C(O)c1ccc(N)cc1)N1CCC(Cc2ccccc2)CC1 (stereo not given)	121 to 125
CC[C@H](C)C(OCc1ccccc1)[C@H]1[C@H]([N+](=O)[O-])[C@H](c2ccccc2)N[C@@H]1C(=O)NCCCCCC(=O)O (stereo not given in full)	105 to 106
CON=Cc1nn(-c2c(Cl)cc(C(F)(F)F)cc2Cl)c(N)c1S(C)=O (stereo not given)	80
O=C/C=C/c1cccc(Cl)c1Cl	94 to 95
CCC(=O)Cc1ccc(C(=O)Nc2ccc3cc(C(C)N4CCCC4)cnc3c2C)cc1 (stereo not given)	123 to 127
O=C(Oc1ccccc1OC(=O)c1ccccc1)c1ccccc1	75 to 77
Brc1ccc2c(c1-c1c(Br)ccc3c1CCCC3)CCCC2	146 to 147
Nc1ccc([N+](=O)[O-])cc1S(N)(=O)=O	202 to 204
O=[N+]([O-])c1ccc(CCc2nccs2)cc1	92 to 93

The next lines start with the values.

melting point [°C]	Structure (SMILES)
197 to 198	CC(C)C(=O)Nc1c(OCc2ccccc2)cc(Br)cc1[N+](=O)[O-]
82 to 83	c1ccc(COc2cccc(CCCn3ccnc3)c2)cc1
174	CC(C)(OCc1cc2nc(Cl)ccc2n1S(=O)(=O)c1cccc(Cl)c1Cl)C(=O)O
186 to 189	CC(C)c1cccc(C(C)C)c1NC(=O)NS(=O)(=O)Oc1c(C(C)C)cccc1C(C)C
100 to 102	O=[N+]([O-])c1cc(Br)ccc1N1CCc2ccccc21
116 to 118	c1ccc2c(c1)nc1n2CCCO1
113 to 115	COC(=O)c1c(Cl)cc(Cl)c2ccc(Cl)cc12
148	CC(=O)OC1CSC(Oc2ccccc2[N+](=O)[O-])C(OC(C)=O)C1OC(C)=O (stereo not given)
136 to 138	CC(=O)OC1(C(=O)COC(=O)c2ccccc2)CCC2C3CC(C)C4=CC(=O)C=CC4(C)C3C(O)CC21C (stereo not given)
204 to 205	O=C1NC(=O)c2cc(Nc3ccc(O)c(O)c3)c(Nc3ccccc3)cc21
166 to 168	C#CCCCOc1ccc(/C=C/C(=O)Nc2ccccc2C(=O)O)cc1OC
182 to 184	COC(=O)c1nc(-c2ccc(Cl)c(OC)c2F)cc(NC(C)=O)c1C
132 to 134	CC(C)CC1(C(CCNC(=O)c2ccc(F)c(F)c2)C(=O)NO)CCN(CCc2ccccc2)C1=O (stereo not given)
215 to 218	CC1CC(=O)NN=C1c1ccc2c(c1)N(C)C(=O)CO2 (stereo not given)
130	COc1cc2c(cc1OC)C(O)N(CCc1ccccc1)C2=O (stereo not given)
236 to 238	Brc1cnc2c(c1)ncn2-c1cccc(-n2ccnc2)c1
194 to 196	COC(=O)c1cc2c(Cl)cc(F)c(-n3c(=O)cc(C(F)(F)F)n(C)c3=O)c2o1
138 to 141	CC[C@H](Nc1nc(Nc2cccc(NS(C)(=O)=O)c2)nc2[nH]cnc12)c1ccccc1
153 to 154	COc1ccc2c(=O)c(-c3ccccc3)c(SCc3ccccc3)oc2c1
235 to 240	CC1(C)C(=NO)C(=NO)C(C)(C)N1C(=O)c1ccccc1

melting point [°C]	Structure (SMILES)
148 to 150	N#Cc1ccn(O)c1-c1ccc(Cl)cc1
145 to 146	O=C1C=C(O)CC(c2ccccc2)O1 (stereo not given)
131	CCOC(=O)c1c(-c2ccc(CBr)cc2)nc2ccccn12
246	CNS(=O)(=O)c1cc(C(=O)c2c(C)[nH]c3ccccc23)ccc1Cl
78 to 80	COC(=O)C(=Cc1cccc([N+](=O)[O-])c1)C(=O)OC
186 to 187	Cc1nc2c(N)nc3ccccc3c2n1CCOCCN1CCCS1(=O)=O
119 to 121	O=C1c2ccccc2C(=O)N1CC(Cc1c[nH]c([N+](=O)[O-])n1)ON1C(=O)c2ccccc2C1=O (stereo not given)
285 to 288	Cc1[nH]c(=O)ccc1-c1cccc(O)c1
130 to 140	CCCCc1nc(CO)c(C(=O)O)n1Cc1ccc(-c2ccccc2C(=O)O)cc1
140 to 141	O=C(O)Cc1ccc2c(c1)CC(CNS(=O)(=O)c1ccccc1)C2 (stereo not given)
76 to 79	CC(=O)CN1CCc2c(c(=O)oc3cc(C(C)C)ccc23)C1
152 to 155	CCOCc1nc2c(N)nc3ccccc3c2n1CCOCCNS(C)(=O)=O
173 to 175	CN1CNC(=S)N(c2ccc(F)cc2)C1
185 to 186	COC[C@](C#N)(C(=O)NCC(C)(C)C)[C@H](c1ccccc1OC)c1cccc2ccccc12 (relative stereo)
81 to 83	CCCCC(NC(=O)C(CC(C)C)NC(=O)c1cccc2ccccc12)C(=O)CSCc1ccco1 (stereo not given)
> 225	O=C1NC(=S)SC1=Cc1ccc(OCc2ccccc2)cc1
198 to 200	CCOC(=O)N1C(=O)C2(COc3cc4c(cc32)OCCO4)c2ccccc21 (stereo not given)
88 to 89	CCOC(=O)c1c(O)c2ccc(F)cc2c(=O)n1CC1CC1
180	CN1CC(=O)c2c(c3ccccc3n2C)S1(=O)=O
240 to 247	O=C1NCC(c2ccccc2)SCC1N1C(=O)c2ccccc2C1=O (stereo not given)

melting point [°C]	Structure (SMILES)
249 to 250	O=c1c2c(nc3ccc(Cl)cn13)C(=Cc1ccccc1Cl)CC2
75 to 79	C[C@@H](O)c1cc2cc(CN3CCOCC3)cc3c(=O)c(C(=O)NCc4ccc(Cl)cc4)cn1c23
115 to 117	Cc1nc2c3ccccc3ccn2c1CN1CCN(CCO)CC1
164 to 166	CCNc1nnc2ccc(-c3cccc(N(CC)C(=O)CC)c3)nn12
195 to 197	CCN1C2=C(CSC2)C(=O)Nc2ccccc21
128 to 130	CCS(=O)(=O)N[C@H](C(=O)NCCc1cc(Br)c(OCc2ccccc2)c(OC)c1)C(C)C
228 to 229	O=C(CN1CCN(c2ccccc2F)CC1)Nc1ccc2c(c1NC(=O)c1ccccc1)C(=O)c1ccccc1C2=O
83 to 87	CCOC(=O)C(Cc1cn(C)c2c(Cl)cccc12)(NC=O)C(=O)OCC
129 to 130	CC1(Cc2ccc(Br)cc2)C(=O)N(c2cc(Cl)cc(Cl)c2)c2ccccc21 (stereo not given)
218 to 224	CN(C)NC(=NS(=O)(=O)c1ccc(Cl)cc1)N1CC(c2ccccc2)C(c2ccc(Cl)cc2)=N1 (single isomer, unassigned; (-))
231 to 232	COC(=S)c1cccc2nc(C)n(Cc3ccc(-c4ccccc4-c4nc(=O)o[nH]4)cc3)c12
74 to 76	Cc1oc(-c2ccccc2)nc1CCSc1ccc(C=O)cc1
110	CNC(=O)C(c1ccccc1F)N(C(=O)CNC(=O)Nc1cccc(C)c1)c1cccc(OC)c1 (stereo not given)
88 to 89	ClCc1csc(/C=C/c2ccccc2)n1
68 to 70	CCc1cc(C)c2c(n1)-c1ccccc1C2=O
282 to 285	Cn1c(C(F)(F)F)cc(=O)n(-c2cc(N(S(C)(=O)=O)S(C)(=O)=O)c(Cl)cc2F)c1=O
214 to 221	CN(C)C(=O)Nc1c(C(=O)c2cccc(Cl)c2)[nH]c2cc(Cl)ccc12
297 to 303	Cn1cc(C2=C(c3c4n(c5ccccc35)CCC(CNC(=O)c3ccccc3)C4)C(=O)NC2=O)c2ccccc21 (stereo not given)
